Source: patent US6979686B1, “Substituted pyrazoles as p38 kinase inhibitors” (Pharmacia Corporation, priority 2001, dated 2005)
Like-named read-outs stand apart in the source and are kept apart here.

Columns and labels:
[1] = system: TNF-α, U937 human histiocytic lymphoma cell line; experiment: LPS stimulation of TNF production by U937 cells; format: cell-based
Description: Maintenance and Differentiation of the U937 Human Histiocytic Lymphoma Cell Line:
Fifty million cells in 100 ml media were induced to terminal monocytic differentiation by 24 hour incubation with 20 ng/ml phorbol 12-myristate 13-acetate (Sigma). The cells were washed by centrifugation (200×g for 5 min) and resuspended in 100 ml fresh medium. After 24-48 hours, the cells were harvested, centrifuged, and resuspended in culture medium at 2 million cells/ml.
LPS Stimulation of TNF Production by U937 Cells:
Compounds were prepared as 10 mM stock solutions in DMSO and diluted in culture medium to yield a final DMSO concentration of 0.1% in the cell assay. LPS (E coli, 100 ng/ml final concentration) was then added at a volume of 0.02 ml. After 4 hour incubation at 37° C., the amount of TNF-α released in the culture medium was quantitated by ELISA. Inhibitory potency is expressed as IC50 (μM).
In vitro whole cell assay for measuring the ability of the compounds to inhibit TNF production in human U937 cells stimulated with LPS are shown in the column identified as: • “U937 Cell IC50, uM or % inhib @ conc., (uM)”

human p38 kinase alpha = target: T1, human p38 kinase alpha (Homo sapiens, UniProt Q16539); experiment: p38 kinase in vitro assay, phosphorylation of biotinylated PHAS-I with 32P-ATP; format: biochemical; details: for inhibition at 1 µM: read-out: P38 alpha kinase % inhib @ conc.
T1 construct: GST (N, cleaved yes); made in house; host or cells: E. coli DH10B
T1 sequence (Q16539 whole entry): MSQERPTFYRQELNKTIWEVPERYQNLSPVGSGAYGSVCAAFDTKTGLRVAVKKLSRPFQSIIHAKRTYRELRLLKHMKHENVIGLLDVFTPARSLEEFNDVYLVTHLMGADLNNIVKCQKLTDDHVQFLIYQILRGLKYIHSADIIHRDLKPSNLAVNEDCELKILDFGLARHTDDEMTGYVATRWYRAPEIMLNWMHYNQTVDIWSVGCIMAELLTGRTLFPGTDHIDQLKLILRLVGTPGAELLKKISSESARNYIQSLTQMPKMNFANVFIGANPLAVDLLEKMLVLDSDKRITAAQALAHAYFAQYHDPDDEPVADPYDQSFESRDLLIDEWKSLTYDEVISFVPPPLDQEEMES

[2] = TNF production, human U937 cells stimulated with LPS, read-out: U937 Cell IC50
[3] = @ 10.0 uM, TNF production, LPS-stimulated U937 cells
[4] = @ 1.0 uM, TNF production, U937 cells stimulated with LPS
[5] = Homo sapiens, U-937, TNF production, human U937 cells stimulated with LPS, read-out: U937 Cell IC50
[6] = in vitro P38-alpha kinase inhibition, read-out: P38 alpha kinase IC50
[7] = in vitro P38-alpha kinase, read-out: P38 alpha kinase IC50

`O=C(NCCCc1[nH]nc(-c2ccc(F)cc2)c1-c1ccncc1)C1CCC1` [Example B-1165] was tested, and the IC50 [1, 2] was 990 nM and the “P38 alpha kinase % inhib @ conc. (uM)” value (human p38 kinase alpha; @ 1.0 uM) was 66.0% @.

`Cc1[nH]nc(-c2cccc(Cl)c2)c1-c1ccncc1` [Example A-51] was tested, and the IC50 ([1]; Table 5, LPS-stimulated U937 cells, TNF-α, read-out: U937 Cell Assay IC50) was 74 nM and the IC50 (human p38 kinase alpha; activated human p38 kinase alpha, PHAS-I substrate, 50 μM unlabeled ATP, read-out: p38 kinase IC50) was < 100 nM.

`COC(=O)C(C)NC(=O)Cn1nc(-c2ccc(F)cc2)c(-c2ccncc2)c1C` (stereo not drawn) [Example B-2363] was tested, and the “U937 Cell % inhib @ conc.” value [1, 3] was 1.0% @ and the “P38 alpha kinase % inhib @ conc.” value (human p38 kinase alpha; @ 10.0 uM) was 44.0% @.

`CCOC(=O)C(CCSC)NC(=O)NCc1[nH]nc(-c2ccc(F)cc2)c1-c1ccncc1` (stereo not drawn) [Example B-0147] was tested, and the “U937 Cell % inhib @ conc.” value [1, 4] was 22.0% @ and the “P38 alpha kinase % inhib @ conc.” value (human p38 kinase alpha; @ 1.0 uM) was 44.0% @.

Compound `COc1ccc(CC(=O)NCc2[nH]nc(-c3ccc(F)cc3)c2-c2ccncc2)cc1OC` [Example B-0034] has an IC50 [1, 5] of 10000 nM and an inhibition at 1 µM (human p38 kinase alpha; @ 1.0 uM) of 95%.

`CCN1CCC(N(CC)C(=O)Cn2nc(-c3ccc(F)cc3)c(-c3ccncc3)c2C)C1` (stereo not drawn) [Example B-2369] was tested, and the IC50 [1, 2] was > 10000 nM and the “P38 alpha kinase % inhib @ conc.” value (human p38 kinase alpha; @ 10.0 uM) was 32.0% @.

In the case of `COc1ccc(NC(=O)NC(C)c2[nH]nc(-c3ccc(F)cc3)c2-c2ccncc2)c(OC)c1` (stereo not drawn) [Example B-0599], the “U937 Cell % inhib @ conc. (uM)” value ([1]; @ 1.0 uM, TNF production in human U937 cells stimulated with LPS) is reported as 21.0% @ and the IC50 (human p38 kinase alpha; [6]) is reported as 4160 nM.

`Cc1c(-c2ccncc2)c(-c2ccc(F)cc2)nn1CC(=O)NCCCN1CCN(C)CC1` [Example B-2289] showed an inhibition at 10 µM ([1]; Homo sapiens, U-937, @ 10.0 uM, TNF production, LPS-stimulated U937 cells, read-out: U937 Cell % inhib @ conc.) of 30% and an IC50 (human p38 kinase alpha; [7]) of 3000 nM.

With `CS(=O)(=O)c1ccc(CNC(=O)NCCCc2[nH]nc(-c3ccc(F)cc3)c2-c2ccncc2)cc1` [Example B-1312] the IC50 [1, 5] was > 1000 nM and the IC50 (human p38 kinase alpha; [7]) was 350 nM.

With `COc1cc(NC(=O)CCNC(=O)Cn2nc(-c3ccc(F)cc3)c(-c3ccncc3)c2C)cc2ccccc12` [Example B-2298] the IC50 [1, 2] was 4220 nM and the IC50 (human p38 kinase alpha; [7]) was 290 nM.

For `CN(C(=O)NC(Cc1ccccc1)c1[nH]nc(-c2ccc(F)cc2)c1-c1ccncc1)c1ccccc1` (stereo not drawn) [Example B-0731], the IC50 ([1]; Homo sapiens, U-937, TNF production in human U937 cells stimulated with LPS, read-out: U937 Cell IC50) was > 1000 nM and the IC50 (human p38 kinase alpha; [6]) was 870 nM.

With `O=C(NCCc1[nH]nc(-c2ccc(F)cc2)c1-c1ccncc1)c1cccc(Cl)c1Cl` [Example B-1132] the inhibition at 1 µM ([1]; Homo sapiens, U-937, @ 1.0 uM, TNF production, U937 cells stimulated with LPS, read-out: U937 Cell % inhib @ conc.) was 11% and the IC50 (human p38 kinase alpha; [6]) was 720 nM.

`CNC(=O)CCC(NC(=O)c1ccc(C)cc1)c1[nH]nc(-c2ccc(F)cc2)c1-c1ccncc1` (stereo not drawn) [Example B-0873] was tested, and the IC50 [1, 5] was > 1000 nM and the IC50 (human p38 kinase alpha; [6]) was 6920 nM.

With `Cc1c(-c2ccncc2)c(-c2ccc(F)cc2)nn1CC(=O)NC1CCCC1` [Example B-2333] the “U937 Cell % inhib @ conc.” value [1, 3] was 36.0% @ and the “P38 alpha kinase % inhib @ conc.” value (human p38 kinase alpha; @ 10.0 uM) was 58.0% @.

In the case of `Cc1c(-c2ccncc2)c(-c2ccc(F)cc2)nn1CC(=O)N(CC(C)C)CC(C)C` [Example B-2372], the IC50 [1, 2] is reported as > 10000 nM and the “P38 alpha kinase % inhib @ conc.” value (human p38 kinase alpha; @ 100.0 uM) is reported as 55.0% @.

With `Cc1cccc(C)c1NC(=O)Cn1nc(-c2ccc(F)cc2)c(-c2ccncc2)c1C` [Example B-2417] the “U937 Cell IC50, uM or % inhib @ conc. (uM): % inhib” value ([1]; @ 10.0 uM, TNF production, U937 cells stimulated with LPS) was 18.0% @ and the “P38 alpha kinase IC50, uM or % inhib @ conc. (uM): % inhib” value (human p38 kinase alpha; @ 10.0 uM) was 83.0% @.

`CCN(Cc1ccncc1)C(=O)Cn1nc(-c2ccc(F)cc2)c(-c2ccncc2)c1C` [Example B-2381] was tested, and the “U937 Cell % inhib @ conc.” value [1, 3] was 2.0% @ and the “P38 alpha kinase % inhib @ conc.” value (human p38 kinase alpha; @ 100.0 uM) was 68% @.

`CNC(=O)CCC(NC(=O)c1ccccc1OC)c1[nH]nc(-c2ccc(F)cc2)c1-c1ccncc1` (stereo not drawn) [Example B-0871] was tested, and the IC50 [1, 5] was > 1000 nM and the IC50 (human p38 kinase alpha; [6]) was 1900 nM.

`COCC(=O)NC(Cc1ccccc1)c1[nH]nc(-c2ccc(F)cc2)c1-c1ccncc1` (stereo not drawn) [Example B-0810] was tested, and the IC50 [1, 5] was > 1000 nM and the IC50 (human p38 kinase alpha; [6]) was 1110 nM.

In the case of `O=C(NCc1[nH]nc(-c2ccc(F)cc2)c1-c1ccncc1)c1ccc(F)c(F)c1` [Example B-0045], the IC50 [1, 5] is reported as 1010 nM and the inhibition at 1 µM (human p38 kinase alpha; @ 1.0 uM) is reported as 94%.

For `CCOC(=O)NC(=O)NCc1[nH]nc(-c2ccc(F)cc2)c1-c1ccncc1` [Example B-0152], the “U937 Cell % inhib @ conc.” value [1, 4] was 24.0% @ and the “P38 alpha kinase % inhib @ conc.” value (human p38 kinase alpha; @ 1.0 uM) was 51.0% @.
